Assay results taken from ChEMBL document CHEMBL1201862, “PubChem BioAssay data set” (2004).
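Dose response: 5 concentrations. Exposure: 48 h. Format: 96-well plates. Endpoint: linear interpolation; highest concentration if not reached. Abbreviation: GI50, concentration required for 50% inhibition of growth.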 Active and inactive are the calls of the source. Cut-off read from the data, not from the text of the source: active = GI50 up to about 1.1 µM and inactive = higher.

Experiments:
Assay in all cases: inhibition of tumour cell growth, NCI panel, 48 h
[1] = test system: 786-0
[2] = test system: A549
[3] = test system: ACHN
[4] = test system: CAKI-1
[5] = test system: CCRF-CEM
[6] = test system: COLO 205
[7] = test system: DLD-1
[8] = test system: DMS-114
[9] = test system: DMS-273
[10] = test system: EKVX
[11] = test system: HCT-116
[12] = test system: HCT-15
[13] = test system: HL-60
[14] = test system: HOP-62
[15] = test system: HOP-92
[16] = test system: HT-29
[17] = test system: IGROV-1
[18] = test system: K562
[19] = test system: KM-20L2
[20] = test system: KM12
[21] = test system: LOX IMVI
[22] = test system: LXFL 529
[23] = test system: M14
[24] = test system: M19-MEL
[25] = test system: MOLT-4
[26] = test system: Malme-3M
[27] = test system: NCI-H226
[28] = test system: NCI-H23
[29] = test system: NCI-H460
[30] = test system: NCI-H522
[31] = test system: OVCAR-3
[32] = test system: OVCAR-4
[33] = test system: OVCAR-5
[34] = test system: OVCAR-8
[35] = test system: RPMI-8226
[36] = test system: RXF 393
[37] = test system: SF-268
[38] = test system: SF-539
[39] = test system: SK-MEL-28
[40] = test system: SK-MEL-2
[41] = test system: SK-MEL-5
[42] = test system: SK-OV-3
[43] = test system: SN12C
[44] = test system: SNB-19
[45] = test system: SNB-75
[46] = test system: SNB-78
[47] = test system: SR
[48] = test system: SW-620
[49] = test system: TK-10
[50] = test system: U-251
[51] = test system: UACC-257
[52] = test system: UO-31
[53] = test system: XF498
[54] = test system: A498
[55] = test system: HCC 2998
[56] = test system: HOP-18
[57] = test system: SF-295
[58] = test system: UACC-62

**Q.** What does the source list for CN1C(=S)CSc2ccccc21?
**A.** GI50 [1]: > 100 µM (inactive); GI50 [2]: > 100 µM (inactive); GI50 [3]: > 100 µM (inactive); GI50 [4]: > 100 µM (inactive); GI50 [5]: > 100 µM (inactive); GI50 [6]: > 100 µM (inactive); GI50 [7]: > 100 µM (inactive); GI50 [8]: > 100 µM (inactive); GI50 [9]: > 100 µM (inactive); GI50 [10]: 44.1 µM (inactive); GI50 [11]: > 100 µM (inactive); GI50 [12]: > 100 µM; GI50 [13]: > 100 µM (inactive); GI50 [14]: > 100 µM (inactive); GI50 [15]: 90.2 µM (inactive); GI50 [16]: > 100 µM (inactive); GI50 [17]: > 100 µM (inactive); GI50 [18]: > 100 µM (inactive); GI50 [19]: > 100 µM (inactive); GI50 [20]: > 100 µM (inactive); GI50 [21]: > 100 µM (inactive); GI50 [22]: > 100 µM (inactive); GI50 [23]: > 100 µM (inactive); GI50 [24]: > 100 µM (inactive); GI50 [25]: > 100 µM (inactive); GI50 [26]: > 100 µM (inactive); GI50 [27]: 89.1 µM (inactive); GI50 [28]: > 100 µM (inactive); GI50 [29]: > 100 µM (inactive); GI50 [30]: > 100 µM (inactive); GI50 [31]: > 100 µM (inactive); GI50 [32]: > 100 µM (inactive); GI50 [33]: > 100 µM (inactive); GI50 [34]: > 100 µM (inactive); GI50 [35]: 89.7 µM (inactive); GI50 [36]: > 100 µM (inactive); GI50 [37]: > 100 µM (inactive); GI50 [38]: > 100 µM (inactive); GI50 [39]: > 100 µM (inactive); GI50 [40]: > 100 µM (inactive); GI50 [41]: 97.1 µM (inactive); GI50 [42]: > 100 µM (inactive); GI50 [43]: > 100 µM (inactive); GI50 [44]: > 100 µM (inactive); GI50 [45]: 42.9 µM (inactive); GI50 [46]: > 100 µM (inactive); GI50 [47]: > 100 µM (inactive); GI50 [48]: > 100 µM (inactive); GI50 [49]: > 100 µM (inactive); GI50 [50]: > 100 µM (inactive); GI50 [51]: > 100 µM (inactive); GI50 [52]: 42.3 µM (inactive); GI50 [53]: 32.4 µM (inactive)

**Q.** With O=C(Cc1nc2ccccc2s1)C(=O)Nc1cccc(C(F)(F)F)c1 as the molecule, how does the GI50 [1] read?
**A.** Its GI50 is > 100 µM (inactive).

**Q.** What about the GI50 [54] of the same molecule?
**A.** The GI50 was > 100 µM (inactive).

**Q.** What about the GI50 [2] of the same molecule?
**A.** Its GI50 is > 100 µM (inactive).

**Q.** And the GI50 [3]?
**A.** Its GI50 is > 100 µM (inactive).

**Q.** What about the GI50 [4] of the same molecule?
**A.** The GI50 was > 100 µM (inactive).

**Q.** What about the GI50 [5] of the same molecule?
**A.** Its GI50 is > 100 µM (inactive).

**Q.** And the GI50 [6]?
**A.** The GI50 was > 100 µM (inactive).

**Q.** What about the GI50 [7] of the same molecule?
**A.** The GI50 was > 100 µM (inactive).

**Q.** What about the GI50 [8] of the same molecule?
**A.** Its GI50 is > 100 µM (inactive).

**Q.** And the GI50 [9]?
**A.** Its GI50 is > 100 µM (inactive).

**Q.** What about the GI50 [10] of the same molecule?
**A.** Its GI50 is > 100 µM (inactive).

**Q.** And the GI50 [55]?
**A.** The GI50 was > 100 µM (inactive).

**Q.** And the GI50 [11]?
**A.** Its GI50 is > 100 µM (inactive).

**Q.** And the GI50 [12]?
**A.** Its GI50 is over 100 µM.

**Q.** And the GI50 [13]?
**A.** Its GI50 is > 100 µM (inactive).

**Q.** And the GI50 [56]?
**A.** Its GI50 is > 100 µM (inactive).

**Q.** What about the GI50 [14] of the same molecule?
**A.** The GI50 was > 100 µM (inactive).

**Q.** And the GI50 [15]?
**A.** The GI50 was > 100 µM (inactive).

**Q.** What about the GI50 [16] of the same molecule?
**A.** The GI50 was > 100 µM (inactive).

**Q.** What about the GI50 [17] of the same molecule?
**A.** The GI50 was > 100 µM (inactive).

**Q.** What about the GI50 [19] of the same molecule?
**A.** Its GI50 is > 100 µM (inactive).

**Q.** And the GI50 [20]?
**A.** Its GI50 is > 100 µM (inactive).

**Q.** What about the GI50 [22] of the same molecule?
**A.** Its GI50 is > 100 µM (inactive).

**Q.** What about the GI50 [23] of the same molecule?
**A.** Its GI50 is > 100 µM (inactive).

**Q.** And the GI50 [24]?
**A.** Its GI50 is > 100 µM (inactive).

**Q.** And the GI50 [25]?
**A.** The GI50 was > 100 µM (inactive).

**Q.** What about the GI50 [26] of the same molecule?
**A.** Its GI50 is > 100 µM (inactive).

**Q.** And the GI50 [27]?
**A.** Its GI50 is > 100 µM (inactive).

**Q.** What about the GI50 [28] of the same molecule?
**A.** Its GI50 is > 100 µM (inactive).

**Q.** And the GI50 [29]?
**A.** Its GI50 is > 100 µM (inactive).

**Q.** What about the GI50 [30] of the same molecule?
**A.** Its GI50 is > 100 µM (inactive).

**Q.** And the GI50 [31]?
**A.** Its GI50 is > 100 µM (inactive).

**Q.** What about the GI50 [32] of the same molecule?
**A.** The GI50 was > 100 µM (inactive).

**Q.** And the GI50 [34]?
**A.** Its GI50 is > 100 µM (inactive).

**Q.** And the GI50 [36]?
**A.** Its GI50 is > 100 µM (inactive).

**Q.** And the GI50 [37]?
**A.** The GI50 was > 100 µM (inactive).

**Q.** And the GI50 [57]?
**A.** The GI50 was > 100 µM (inactive).

**Q.** And the GI50 [38]?
**A.** The GI50 was > 100 µM (inactive).

**Q.** And the GI50 [39]?
**A.** The GI50 was > 100 µM (inactive).

**Q.** And the GI50 [40]?
**A.** Its GI50 is > 100 µM (inactive).

**Q.** What about the GI50 [41] of the same molecule?
**A.** The GI50 was > 100 µM (inactive).

**Q.** And the GI50 [42]?
**A.** The GI50 was > 100 µM (inactive).

**Q.** And the GI50 [43]?
**A.** The GI50 was > 100 µM (inactive).

**Q.** What about the GI50 [44] of the same molecule?
**A.** The GI50 was > 100 µM (inactive).

**Q.** And the GI50 [45]?
**A.** Its GI50 is > 100 µM (inactive).

**Q.** And the GI50 [46]?
**A.** Its GI50 is > 100 µM (inactive).

**Q.** What about the GI50 [47] of the same molecule?
**A.** The GI50 was > 100 µM (inactive).

**Q.** What about the GI50 [48] of the same molecule?
**A.** The GI50 was > 100 µM (inactive).

**Q.** And the GI50 [49]?
**A.** Its GI50 is > 100 µM (inactive).

**Q.** And the GI50 [50]?
**A.** Its GI50 is > 100 µM (inactive).

**Q.** What about the GI50 [51] of the same molecule?
**A.** The GI50 was > 100 µM (inactive).

**Q.** What about the GI50 [58] of the same molecule?
**A.** The GI50 was > 100 µM (inactive).

**Q.** What about the GI50 [52] of the same molecule?
**A.** The GI50 was > 100 µM (inactive).

**Q.** Which results are given for O=C(N/C(=C\c1ccc(Br)cc1)c1nc2ccccc2[nH]1)c1ccccc1?
**A.** GI50 [4]: 23.3 µM (inactive); GI50 [5]: 19.9 µM (inactive); GI50 [6]: 18.9 µM (inactive); GI50 [7]: 17.5 µM (inactive); GI50 [9]: 24.3 µM (inactive); GI50 [55]: 17.2 µM (inactive); GI50 [12]: 16.3 µM; GI50 [15]: 11.6 µM (inactive); GI50 [16]: 18.1 µM (inactive); GI50 [17]: 24.7 µM (inactive); GI50 [18]: 15.8 µM (inactive); GI50 [19]: 15.1 µM (inactive); GI50 [20]: 17.5 µM (inactive); GI50 [22]: 13.6 µM (inactive); GI50 [23]: 18.2 µM (inactive); GI50 [25]: 17.6 µM (inactive); GI50 [26]: 22.9 µM (inactive); GI50 [28]: 17.1 µM (inactive); GI50 [30]: 14.5 µM (inactive); GI50 [31]: 19.1 µM (inactive); GI50 [32]: 13.3 µM (inactive); GI50 [33]: 14.9 µM (inactive); GI50 [34]: 21 µM (inactive); GI50 [36]: 16.4 µM (inactive); GI50 [57]: 28 µM (inactive); GI50 [39]: 15.8 µM (inactive); GI50 [40]: 16.3 µM (inactive); GI50 [41]: 19.8 µM (inactive); GI50 [42]: 34.6 µM (inactive); GI50 [43]: 18.4 µM (inactive); GI50 [44]: 18.4 µM (inactive); GI50 [46]: 21.9 µM (inactive); GI50 [47]: 18.3 µM (inactive); GI50 [48]: 16.1 µM (inactive); GI50 [49]: 30.1 µM (inactive); GI50 [50]: 17.3 µM (inactive); GI50 [58]: 18.8 µM (inactive); GI50 [52]: 15.6 µM (inactive); GI50 [53]: 15.9 µM (inactive)
